Counter-ions that a name gives are not always drawn.
biological target: full-length human PRMT6 (Flag- and His-tagged) (Homo sapiens, UniProt Q96LA8); assay: PRMT6 biochemical assay (3H-SAM Flashplate, histone H4 36-50 K44me1 peptide); conditions: 1 nM PRMT6, 30 min preincubation, 75 nM peptide
Description: S-adenosylmethionine (SAM), S-adenosylhomocysteine (SAH), bicine, Tween20, dimethylsulfoxide (DMSO), bovine skin gelatin (BSG), sodium butyrate and Tris(2-carboxyethyl)phosphine hydrochloride solution (TCEP) were purchased from Sigma-Aldrich at the highest level of purity possible. ^3H-SAM was purchase from American Radiolabeled Chemicals with a specific activity of 80 Ci/mmol. 384-well streptavidin Flashplates were purchased from PerkinElmer.
Peptide representative of human histone H4 residues 36-50 was synthesized with an N-terminal linker-affinity tag motif and a C-terminal amide cap by 21st Century Biochemicals. The peptide was purified by high-performance liquid chromatography (HPLC) to greater than 95% purity and confirmed by liquid chromatography mass spectrometry (LC-MS). The sequence was Biot-Ahx-[…]-amide and contained a monomethylated lysine at position 44 (SEQ ID NO.:5).
Full-length human PRMT6 (NM_018137.2) transcript clone was amplified from an HEK 293 cDNA library, incorporating a flanking 5′ sequence encoding a FLAG tag ([…]) (SEQ ID NO.:6) fused directly to Ser 2 of PRMT6 and a 3′ sequence encoding a hexa His sequence (HHHHHH) (SEQ ID NO.: 17) fused directly to Asp 375. The amplified gene was subcloned into pFastBacMam (Viva Biotech).
Recombinant baculovirus were generated according to Bac-to-Bac kit instructions (Life Technologies). […] Infections were carried out at 37° C. for 48 hours, harvested by centrifugation, and stored at −80° C. for purification.
Column was washed with 20 mM imidazole in the same buffer and Flag-PRMT6-His was eluted with 150 mM imidazole. Pooled fractions were dialysed against buffer Ni-A and further purified by anti-flag M2 affinity chromatography. Flag-PRMT6-His was eluted with 200 ug/ml FLAG peptide in the same buffer. Pooled fractions were dialysed in 20 mM Tris, 150 mM NaCl, 10% glycerol and 5 mM β-mercaptoethanol, pH 7.8. The purity of recovered protein was 95%.
General Procedure for PRMT6 Enzyme Assays on Peptide Substrates.
The assays were all performed in a buffer consisting of 20 mM Bicine (pH=7.6), 1 mM TCEP, 0.005% BSG, and 0.002% Tween 20, prepared on the day of use. Compounds in 100% DMSO (1 ul) were spotted into a polypropylene 384-well V-bottom plates (Greiner) using a Platemate Plus outfitted with a 384-channel head (Thermo Scientific). DMSO (1 ul) was added to Columns 11, 12, 23, 24, rows A-H for the maximum signal control and 1 ul of SAH, a known product and inhibitor of PRMT6, was added to columns 11, 12, 23, 24, rows I-P for the minimum signal control. A cocktail (40 ul) containing the PRMT6 enzyme was added by Multidrop Combi (Thermo-Fisher). The compounds were allowed to incubate with PRMT6 for 30 min at room temperature, then a cocktail (10 ul) containing SAM and peptide was added to initiate the reaction (final volume=51 ul). The final concentrations of the components were as follows: PRMT6 was 1 nM, ^3H-SAM was 200 nM, non-radiolabeled SAM was 250 nM, peptide was 75 nM, SAH in the minimum signal control wells was 1 mM, and the DMSO concentration was 2%. The assays were stopped by the addition of non-radiolabeled SAM (10 ul) to a final concentration of 400 uM, which dilutes the ^3H-SAM to a level where its incorporation into the peptide substrate is no longer detectable. 50 ul of the reaction in the 384-well polypropylene plate was then transferred to a 384-well Flashplate and the biotinylated peptides were allowed to bind to the streptavidin surface for at least 1 hour before being washed once with 0.1% Tween20 in a Biotek ELx405 plate washer. The plates were then read in a PerkinElmer TopCount plate reader to measure the quantity of ^3H-labeled peptide bound to the Flashplate surface, measured as disintegrations per minute (dpm) or alternatively, referred to as counts per minute (cpm).
Where dpm=disintegrations per minute, cmpd=signal in assay well, and min and max are the respective minimum and maximum signal controls. […]

full-length human PRMT6 (Flag- and His-tagged), sequence (Q96LA8 with tags, fused parts or gaps): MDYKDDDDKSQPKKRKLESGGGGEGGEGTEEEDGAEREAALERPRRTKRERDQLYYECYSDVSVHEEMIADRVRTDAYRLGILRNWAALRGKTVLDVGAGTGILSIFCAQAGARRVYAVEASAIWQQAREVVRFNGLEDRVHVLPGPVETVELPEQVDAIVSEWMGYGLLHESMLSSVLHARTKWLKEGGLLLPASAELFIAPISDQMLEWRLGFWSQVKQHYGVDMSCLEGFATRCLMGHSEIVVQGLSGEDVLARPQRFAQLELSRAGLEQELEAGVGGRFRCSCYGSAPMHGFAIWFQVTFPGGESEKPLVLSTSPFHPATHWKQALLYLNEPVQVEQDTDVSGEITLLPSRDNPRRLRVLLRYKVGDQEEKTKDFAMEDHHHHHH

Compound	IC50 [nM]
CC[C@]12CC[C@](CC)(C[C@@H](c3n[nH]cc3CN(C)CCNC)C1)O2 [compound 38, N1-((3-((1R,3s,5S)-1,5-diethyl-8-oxabicyclo[3.2.1]octan-3-yl)-1H-pyrazol-4-yl)methyl)-N1,N2-dimethylethane-1,2-diamine]	132
CNCCN(C)Cc1ccnn1[C@H]1CC[C@]2(CC1)CC(C)(C)CO2 [compound 50, N1-((1-((5r,8r)-3,3-dimethyl-1-oxaspiro[4.5]decan-8-yl)-1H-pyrazol-5-yl)methyl)-N1,N2-dimethylethane-1,2-diamine]	502
Cc1[nH]nc([C@H]2CC[C@@]3(CC2)CC(C)(C)CO3)c1CN(C)CCN [compound 51, N1-((3-((5s,8s)-3,3-dimethyl-1-oxaspiro[4.5]decan-8-yl)-5-methyl-1H-pyrazol-4-yl)methyl)-N1-methylethane-1,2-diamine]	155
Cc1[nH]nc([C@H]2CC[C@]3(CC2)CC(C)(C)CO3)c1CN(C)CCN [compound 52, N1-((3-((5r,8r)-3,3-dimethyl-1-oxaspiro[4.5]decan-8-yl)-5-methyl-1H-pyrazol-4-yl)methyl)-N1-methylethane-1,2-diamine]	202
CNCCN(C)Cc1c(C)[nH]nc1[C@H]1CC[C@]2(CC1)CC(C)(C)CO2 [compound 58]	163
CCOCC1(COCC)CC=C(c2n[nH]cc2CN(C)CCNC)CC1 [compound 60]	41.1
CNCCN(C)Cc1nn(C)nc1[C@H]1CC[C@@]2(CC1)CC(C)(C)CO2 [compound 64]	208
CNCCN(C)Cc1cnnn1[C@H]1CC[C@@]2(CC1)CC(C)(C)CO2 [compound 65]	> 10000
CNCCN(C)Cc1nncn1[C@H]1CC[C@@]2(CC1)CC(C)(C)CO2 [compound 68]	> 10000
CNCCN(C)Cc1nccn1[C@H]1CC[C@@]2(CC1)CC(C)(C)CO2 [compound 69]	8040
CNCCN(C)Cc1nnc(C)n1[C@H]1CC[C@@]2(CC1)CC(C)(C)CO2 [compound 71]	> 10000
CNCCN(C)Cc1cncn1[C@H]1CC[C@@]2(CC1)CC(C)(C)CO2 [compound 76]	181
CNCCN(C)Cc1nc(C)sc1[C@H]1CC[C@@]2(CC1)CC(C)(C)CO2 [compound 77]	180
CN(CCN)Cc1nn(C)cc1[C@H]1CC[C@@]2(CC1)CC(C)(C)CO2 [compound 80]	345
CNCCN(C)Cc1nn(C)nc1C1CCC2(CC1)CC(C)(C)CO2 (stereo not drawn) [compound 86]	444
CNCCN(C)Cc1nn[nH]c1[C@H]1CC[C@]2(CC1)CC(C)(C)CO2 [compound 89]	428

Compound	IC50 [nM]
CNCCN(C)Cc1nncn1[C@H]1CC[C@]2(CC1)CC(C)(C)CO2 [compound 90]	> 10000
CNCCN(C)Cc1nccn1[C@H]1CC[C@]2(CC1)CC(C)(C)CO2 [compound 91]	> 10000
CNCCN(C)Cc1nnc(C)n1[C@H]1CC[C@]2(CC1)CC(C)(C)CO2 [compound 93]	> 10000
CNCCN(C)Cc1c(Cl)ncn1[C@H]1CC[C@]2(CC1)CC(C)(C)CO2 [compound 97]	3510
CNCCN(C)Cc1cncn1[C@H]1CC[C@]2(CC1)CC(C)(C)CO2 [compound 98]	2790
CNCCN(C)Cc1nc(C)sc1[C@H]1CC[C@]2(CC1)CC(C)(C)CO2 [compound 99]	317
CNCCN(C)Cc1sc(C)nc1[C@H]1CC[C@]2(CC1)CC(C)(C)CO2 [compound 100]	389
CN(CCN)Cc1nn(C)cc1[C@H]1CC[C@]2(CC1)CC(C)(C)CO2 [compound 102]	1140
CNCCN(C)Cc1nn(C)cc1[C@H]1CC[C@]2(CC1)CC(C)(C)CO2 [compound 103]	405
CN(CCN)Cc1c[nH]nc1[C@H]1CC[C@@]2(CC1)CC(C)(C)CO2 [compound 105]	18.5
CNCCN(C)Cc1c(C)noc1[C@H]1CC[C@@]2(CC1)CC(C)(C)CO2 [compound 113]	1150
CNCCN(C)Cc1c(C)noc1[C@H]1CC[C@]2(CC1)CC(C)(C)CO2 [compound 114]	2080
CNCCN(C)Cc1n[nH]cc1[C@H]1CC[C@@]2(CC1)CC(C)(C)CO2 [compound 115]	41.6
CNCCN(C)Cc1n[nH]cc1[C@H]1CC[C@]2(CC1)CC(C)(C)CO2 [compound 116]	134
CNCCN(C)Cc1nocc1[C@H]1CC[C@@]2(CC1)CC(C)(C)CO2 [compound 117]	1310
CNCCN(C)Cc1nocc1[C@H]1CC[C@]2(CC1)CC(C)(C)CO2 [compound 118]	3530

Now from value to compound:

IC50 [nM]	Compound
124	CNCCN(C)Cc1c[nH]nc1C1CCC(C)(C)[C@H](COCCOC)C1 (stereo partly drawn) [compound 35, {2-[({3-[(3R)-3-[(2-methoxyethoxy)methyl]-4,4-dimethylcyclohexyl]-1H-pyrazol-4-yl}methyl)(methyl)amino]ethyl}(methyl)amine]
14.9	CCCOCC1(COCCC)CCC(c2n[nH]cc2CN(C)CCNC)CC1 [compound 36, N^1-((3-(4,4-bis(propoxymethyl)cyclohexyl)-1H-pyrazol-4-yl)methyl)-N^1,N^2-dimethylethane-1,2-diamine]
128	CC[C@]12CC[C@](CC)(C[C@H](c3n[nH]cc3CN(C)CCNC)C1)O2 [compound 37, N1-((3-((1R,3r,5S)-1,5-diethyl-8-oxabicyclo[3.2.1]octan-3-yl)-1H-pyrazol-4-yl)methyl)-N1,N2-dimethylethane-1,2-diamine]
94	CNCCN(C)Cc1c(C)[nH]nc1[C@H]1CC[C@@]2(CC1)CC(C)(C)CO2 [compound 57]
131	Cc1[nH]nc(C2CCC3(CC2)CC(C)(C)CO3)c1CN(C)CCN (stereo not drawn) [compound 59]
18.3	CNCCN(C)Cc1scnc1[C@H]1CC[C@@]2(CC1)CC(C)(C)CO2 [compound 62]
51.1	CNCCN(C)Cc1nn[nH]c1[C@H]1CC[C@@]2(CC1)CC(C)(C)CO2 [compound 67]
98.4	CNCCN(C)Cc1sc(C)nc1[C@H]1CC[C@@]2(CC1)CC(C)(C)CO2 [compound 78]
123	CNCCN(C)Cc1nn(C)cc1[C@H]1CC[C@@]2(CC1)CC(C)(C)CO2 [compound 81]
62.7	CNCCN(C)Cc1ncsc1[C@H]1CC[C@@]2(CC1)CC(C)(C)CO2 [compound 83]
89.3	CNCCN(C)Cc1scnc1[C@H]1CC[C@]2(CC1)CC(C)(C)CO2 [compound 84]
12.8	CN(CCN)Cc1c[nH]nc1[C@H]1CC[C@]2(CC1)CC(C)(C)CO2 [compound 106]
79.3	CCOCC1(COCC)CCC(c2n[nH]cc2CN(C)CCN(C)C)CC1 [compound 121]
42.7	CCOCC1(COCC)CCC(c2nn(C)cc2CN(C)CCNC)CC1 [compound 122]
16.7	CCOCC1(COCC)CCC(c2n[nH]cc2CN(C)CCN)CC1 [compound 123]
58.1	CCOCC1(COCC)CCC(c2nn(C)cc2CN(C)CCN)CC1 [compound 124]
17.4	CNCCN(C)Cc1c[nH]nc1C1CCC2(CC1)CC(C)(C)OC2=O (stereo not drawn) [compound 125]
39.9	CNCCN(C)Cc1c[nH]nc1[C@H]1CC[C@@]2(CC1)COC(C)(C)C2 [compound 126, N1-((3-((5r,8r)-3,3-dimethyl-2-oxaspiro[4.5]decan-8-yl)-1H-pyrazol-4-yl)methyl)-N1,N2-dimethylethane-1,2-diamine]
23.2	CNCCN(C)Cc1c[nH]nc1[C@H]1CC[C@]2(CCCCO2)CC1 [compound 127, methyl([2-[methyl([3-[(6s,9r)-1-oxaspiro[5.5]undecan-9-yl]-1H-pyrazol-4-yl]methyl)amino]ethyl])amine bistrifluoroacetic acid salt]
